One may read the IC50 as the concentration at which inhibition is half-maximal. In general, EC50 refers to the concentration at which the effect is half-maximal.

Series [1] concerns the target interaction between PD-1 and PD-L1 (Homo sapiens (Human), UniProt Q9NZQ7). Nature of the series: PD1-PDL1 HTRF binding activity test (Cisbio PD-1/PD-L1 binding assay kit). The conditions noted are these: read-out: PD1-PDL1 HTRF Binding Activity IC50. (Time-resolved FRET reads energy transfer from a long-lived donor to a nearby acceptor.)
The target in series [2] is interaction between PD-1 and PD-L1 expressed on cell surfaces (Homo sapiens (Human), UniProt Q9NZQ7). Nature of the series: Jurkat reporter gene cellular assay (Jurkat/NF-κB-luc/PD1 cells cocultured with Raji-PD-L1 cells, OKT-3 stimulation). The conditions noted are these: NF-κB-luc reporter activation fold, 6 hrs; read-out: Cell Activity EC50. The format is cell-based. The procedure, abridged:
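Jurkat cells stably expressing human PD-1 and NF-κB-luciferase were cocultured with Raji cells stably expressing human PD-L1 under OKT-3 stimulation, with compound present. Luminescence was read after 6 h.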
(In general: In a reporter assay the amount or activity of a reporter protein is the signal.)

The nature of series [3]: Pharmacokinetic assay in mice, per oral administration. The format is in vivo. The following applies: ICR mice. An excerpt:
C. Pharmacokinetic Assay in Mice
The purpose of this study was to study the pharmacokinetic behaviors of some compounds of the present invention, and administration routes were: per oral administration (PO) to ICR mice:
The compounds used in this test came from the compounds of the specific examples of the present invention.
ICR mice male N=3 original source: Shanghai Sippr-BK Laboratory Animal Co. Ltd.
2.3 Preparation and Administration of Medicaments
The compounds were weighed, and dissolved in solvent of 0.5% SDS+0.5% CMCNa. The mixture solutions were mixed well by shaking and ultrasonic treatment to obtain colorless clear solutions. The solutions were orally administered to nine mice after an overnight fast. The dosage of administration was 10 mg/kg (or 30 mg/kg).
With about 90 μL/time point, blood was drawn from the submaxillary vein, and heparin sodium was added for anticoagulation. The blood samples were placed onto the ice, and were centrifuged (centrifugation conditions: 8000 r/min, 6 min, 2-8° C.) within 1 hr to obtain plasmas. The time points for blood sampling were at 0 hr, 0.25 hr, 0.5 hr, 1 hr, 2 hrs, 4 hrs, 6 hrs, 8 hrs and 24 hrs after administration. The samples were stored in a refrigerator at −20° C.
40 μL of plasma sample was added to 160 μL of cold acetonitrile containing an internal standard, and the mixture solution was vortexed for 3 min and centrifuged at 11,000 r/min for 5 min. 100 μL of supernate was taken and added to 100 μL of water, and 5 μL of the sample was taken and analyzed by LC/MS/MS. Only the original compounds were analyzed for examples 1, 3, 5, 8, 46 and 141 (for results, see table 2); and both the original compounds and possible products of ester hydrolysis, namely example 2, 27, 65 and 105, were analyzed for examples 4, 26, 64 and 104 (for results, see table 3).

interaction between PD-1 and PD-L1, sequence (Q9NZQ7 19-238): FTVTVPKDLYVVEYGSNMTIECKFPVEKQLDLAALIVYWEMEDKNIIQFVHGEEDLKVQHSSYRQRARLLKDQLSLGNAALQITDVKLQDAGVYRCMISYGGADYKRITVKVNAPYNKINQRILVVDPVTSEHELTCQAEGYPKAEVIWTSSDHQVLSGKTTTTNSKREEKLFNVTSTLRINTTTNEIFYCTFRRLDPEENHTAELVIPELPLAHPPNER
interaction between PD-1 and PD-L1 expressed on cell surfaces, sequence (Q9NZQ7 19-290): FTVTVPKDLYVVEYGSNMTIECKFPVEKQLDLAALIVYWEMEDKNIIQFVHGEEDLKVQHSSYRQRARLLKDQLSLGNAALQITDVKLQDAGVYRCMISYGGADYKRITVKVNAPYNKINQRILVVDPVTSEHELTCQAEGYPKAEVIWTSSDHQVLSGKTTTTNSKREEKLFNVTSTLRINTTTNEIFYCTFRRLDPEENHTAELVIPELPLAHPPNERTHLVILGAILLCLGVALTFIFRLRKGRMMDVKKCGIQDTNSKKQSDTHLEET

In the case of `COc1cc(C(=O)Nc2cccc(-c3cccc(NC(=O)c4cc(OC)c(CN5CCCC[C@H]5C(=O)O)cn4)c3C)c2C)ncc1CN1CCCC[C@H]1C(=O)O` [Example 65, (2S,2S)-1,1′-(((((2,2′-dimethyl-[1,1′-bipheny]-3,3′-diyl)bis(azanediyl))bis(carbonyl))bis(4-methoxypyridine-6,3-diyl))bis(methylene))bis(piperidine-2-carboxylic acid)], the IC50 in series [1] came out at 0.12 nM. The half-maximal effective concentration (EC50) in series [2] turned out to be 132 nM. Moreover, the Cmax entry in series [3] (product of ester hydrolysis analyzed after PO 30 mg/kg of the ester (2 after 4, 27 after 26, 65 after 64)) is “BQL”.

Turning to `COC(=O)[C@@H](CO)NCc1cnc(C(=O)Nc2cccc(-c3cccc(NC(=O)c4cc(C5CC5)c(CN[C@H](CO)C(=O)OC)cn4)c3C)c2C)cc1C1CC1` [Example 104], the 50% inhibitory concentration (IC50) in series [1] is 1.57 nM. In series [2], the EC50 was 296 nM. The Cmax entry in series [3] (Table 3, PO 10 mpk, original compound (ester 104) analyzed) was “BQL”. Further, in series [3] (oral administration), the “ester hydrolysis in the bodies of the mice after oral administration” value is listed as “rapidly became corresponding acids”.

Turning to `COc1cc(C(=O)Nc2cccc(-c3cccc(NC(=O)c4cc(OC)c(CNCCO)cn4)c3Cl)c2C)ncc1CNCCO` [Example 141, N,N′-(2-chloro-2′-methyl-[1,1′-biphenyl]-3,3′-diyl)bis(5-(((2-hydroxyethyl)amino)methyl)-4-methoxypicolinamide)], the IC50 in series [1] came out at 0.75 nM. In addition, the EC50 in series [2] worked out at 74 nM. Besides, the Cmax entry in series [3] (PO 10 mg/kg, plasma, original compound analyzed) is “BQL”.

The values above are taken from patent publication US11459339B2, “Biaryl derivative, preparation method thereof and pharmaceutical application thereof” (Abbisko Therapeutics Co., Ltd., priority 2018, dated 2022).
